{"source": "ChEMBL document CHEMBL5532675", "about": "“Discovery of 4-Ethoxy-6-chloro-5-azaindazoles as Novel PDE4 Inhibitors for the Treatment of Alcohol Use Disorder and Alcoholic Liver Diseases” (J Med Chem, 2024)", "key": {"[1]": {"biological_target": "3',5'-cyclic-AMP phosphodiesterase 4B (Homo sapiens, UniProt Q07343)", "sequence (Q07343 whole entry)": "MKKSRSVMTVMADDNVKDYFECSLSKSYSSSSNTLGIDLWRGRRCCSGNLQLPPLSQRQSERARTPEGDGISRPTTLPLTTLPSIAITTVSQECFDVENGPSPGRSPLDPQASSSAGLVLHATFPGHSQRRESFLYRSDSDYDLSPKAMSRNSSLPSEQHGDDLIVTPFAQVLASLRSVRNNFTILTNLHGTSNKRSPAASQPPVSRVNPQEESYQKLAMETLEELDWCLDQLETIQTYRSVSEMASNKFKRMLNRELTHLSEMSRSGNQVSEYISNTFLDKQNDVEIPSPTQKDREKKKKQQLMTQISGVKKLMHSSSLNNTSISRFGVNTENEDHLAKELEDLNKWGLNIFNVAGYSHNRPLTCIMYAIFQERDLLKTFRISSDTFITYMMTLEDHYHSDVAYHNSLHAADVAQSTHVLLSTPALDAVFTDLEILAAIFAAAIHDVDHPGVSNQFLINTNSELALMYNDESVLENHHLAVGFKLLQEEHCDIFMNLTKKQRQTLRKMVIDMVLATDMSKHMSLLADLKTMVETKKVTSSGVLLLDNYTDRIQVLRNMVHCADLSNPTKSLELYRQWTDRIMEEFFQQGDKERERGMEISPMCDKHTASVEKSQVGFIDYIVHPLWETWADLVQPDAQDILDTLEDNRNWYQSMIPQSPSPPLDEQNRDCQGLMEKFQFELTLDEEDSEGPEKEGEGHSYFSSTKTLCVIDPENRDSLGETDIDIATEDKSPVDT", "assay": "Inhibition of PDE4B1 (unknown origin) using FAM-cyclic-3',5'-AMP as substrate incubated for 1 hrs by fluorescence polarization based IMAP assay"}, "[2]": {"biological_target": "3',5'-cyclic-AMP phosphodiesterase 4D (Homo sapiens, UniProt Q08499)", "sequence (Q08499 whole entry)": "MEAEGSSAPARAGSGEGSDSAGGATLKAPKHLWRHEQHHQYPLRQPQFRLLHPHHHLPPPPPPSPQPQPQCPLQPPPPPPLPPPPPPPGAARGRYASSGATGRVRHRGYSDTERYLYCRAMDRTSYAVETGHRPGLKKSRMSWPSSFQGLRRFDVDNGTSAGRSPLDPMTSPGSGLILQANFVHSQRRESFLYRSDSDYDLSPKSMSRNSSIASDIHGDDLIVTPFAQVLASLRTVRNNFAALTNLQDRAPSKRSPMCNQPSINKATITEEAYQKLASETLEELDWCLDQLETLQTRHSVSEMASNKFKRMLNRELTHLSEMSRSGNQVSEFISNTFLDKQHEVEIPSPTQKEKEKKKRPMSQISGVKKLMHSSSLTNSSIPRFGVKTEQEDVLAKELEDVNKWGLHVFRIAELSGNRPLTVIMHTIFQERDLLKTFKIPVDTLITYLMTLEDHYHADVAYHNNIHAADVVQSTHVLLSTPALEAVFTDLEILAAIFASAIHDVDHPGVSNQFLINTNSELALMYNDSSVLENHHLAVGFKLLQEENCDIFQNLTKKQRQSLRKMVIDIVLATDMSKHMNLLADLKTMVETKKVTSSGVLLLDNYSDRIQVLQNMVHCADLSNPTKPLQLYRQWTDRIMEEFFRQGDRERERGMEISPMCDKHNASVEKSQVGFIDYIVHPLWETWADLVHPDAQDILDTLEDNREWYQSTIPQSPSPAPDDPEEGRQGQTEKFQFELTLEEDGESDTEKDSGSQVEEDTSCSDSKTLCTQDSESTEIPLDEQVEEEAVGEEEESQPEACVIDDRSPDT", "assay": "Inhibition of PDE4D7 (unknown origin) using FAM-cyclic-3',5'-AMP as substrate incubated for 1 hrs by fluorescence polarization based IMAP assay"}, "[3]": {"assay": "Acute toxicity in C57BL/6J mouse assessed as poisoning symptoms at 1 g/Kg, po administered for 14 days", "format": "organism-based", "conditions": "in vivo, 1000 mg/kg, 336 h, time 14 day"}, "[4]": {"assay": "Selectivity ratio for inhibition of PDE9A (unknown origin) using FAM-cyclic-3',5'-AMP as substrate to inhibition of PDE4B1 (unknown origin) using FAM-cyclic-3',5'-AMP as substrate"}, "[5]": {"assay": "Selectivity ratio for inhibition of PDE8A1 (unknown origin) using FAM-cyclic-3',5'-AMP as substrate to inhibition of PDE4B1 (unknown origin) using FAM-cyclic-3',5'-AMP as substrate"}, "[6]": {"biological_target": "cGMP-inhibited 3',5'-cyclic phosphodiesterase 3B (Homo sapiens) (UniProt Q13370)", "sequence (Q13370 whole entry, looked up)": "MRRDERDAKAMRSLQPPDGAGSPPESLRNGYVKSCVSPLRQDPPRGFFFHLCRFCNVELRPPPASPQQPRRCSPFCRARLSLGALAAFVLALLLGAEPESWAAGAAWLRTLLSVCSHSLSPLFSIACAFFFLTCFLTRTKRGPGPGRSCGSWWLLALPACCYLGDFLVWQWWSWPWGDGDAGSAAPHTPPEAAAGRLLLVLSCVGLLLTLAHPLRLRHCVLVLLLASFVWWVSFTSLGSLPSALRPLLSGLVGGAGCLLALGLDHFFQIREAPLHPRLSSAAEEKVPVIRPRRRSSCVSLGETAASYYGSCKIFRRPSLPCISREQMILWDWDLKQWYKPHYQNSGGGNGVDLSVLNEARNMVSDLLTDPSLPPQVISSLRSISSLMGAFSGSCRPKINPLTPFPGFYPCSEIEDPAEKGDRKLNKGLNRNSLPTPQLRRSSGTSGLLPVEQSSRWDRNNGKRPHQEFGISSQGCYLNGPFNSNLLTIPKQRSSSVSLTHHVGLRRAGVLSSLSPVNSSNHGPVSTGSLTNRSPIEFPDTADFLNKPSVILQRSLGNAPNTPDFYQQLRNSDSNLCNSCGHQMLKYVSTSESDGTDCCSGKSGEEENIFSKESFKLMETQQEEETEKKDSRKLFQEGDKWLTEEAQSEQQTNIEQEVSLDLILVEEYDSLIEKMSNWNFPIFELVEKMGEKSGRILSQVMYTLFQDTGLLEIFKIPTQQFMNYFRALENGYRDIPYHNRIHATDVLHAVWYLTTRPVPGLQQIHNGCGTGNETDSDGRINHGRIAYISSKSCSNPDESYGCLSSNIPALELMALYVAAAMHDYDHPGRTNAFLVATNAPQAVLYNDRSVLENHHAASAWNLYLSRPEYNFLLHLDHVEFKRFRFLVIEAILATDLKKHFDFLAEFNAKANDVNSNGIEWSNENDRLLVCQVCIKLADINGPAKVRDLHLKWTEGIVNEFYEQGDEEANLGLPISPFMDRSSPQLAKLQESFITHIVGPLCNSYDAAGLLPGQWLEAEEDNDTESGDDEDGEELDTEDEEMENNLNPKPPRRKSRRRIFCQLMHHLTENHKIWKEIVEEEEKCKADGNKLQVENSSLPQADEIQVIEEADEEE", "assay": "Inhibition of PDE3B (unknown origin) using FAM-cyclic-3',5'-AMP as substrate at 10 uM incubated for 1 hrs by fluorescence polarization based IMAP assay relative to control"}, "[7]": {"biological_target": "High affinity 3',5'-cyclic-AMP phosphodiesterase 7A (Homo sapiens) (UniProt Q13946)", "sequence (Q13946 whole entry)": "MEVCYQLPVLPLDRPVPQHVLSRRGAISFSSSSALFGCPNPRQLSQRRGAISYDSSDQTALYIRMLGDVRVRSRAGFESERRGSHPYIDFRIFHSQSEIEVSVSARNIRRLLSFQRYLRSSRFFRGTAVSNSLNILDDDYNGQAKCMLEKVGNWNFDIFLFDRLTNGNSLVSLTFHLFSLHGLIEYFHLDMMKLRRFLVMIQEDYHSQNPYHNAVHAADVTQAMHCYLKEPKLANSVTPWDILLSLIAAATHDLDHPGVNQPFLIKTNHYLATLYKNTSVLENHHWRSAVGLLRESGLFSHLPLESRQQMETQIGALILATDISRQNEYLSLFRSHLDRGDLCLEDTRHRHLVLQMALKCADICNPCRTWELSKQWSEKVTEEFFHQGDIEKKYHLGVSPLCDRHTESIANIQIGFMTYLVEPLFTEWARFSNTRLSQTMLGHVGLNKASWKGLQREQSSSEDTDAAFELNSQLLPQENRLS", "assay": "Inhibition of PDE7A (unknown origin) using FAM-cyclic-3',5'-AMP as substrate at 10 uM incubated for 1 hrs by fluorescence polarization based IMAP assay relative to control"}, "[8]": {"biological_target": "High affinity cGMP-specific 3',5'-cyclic phosphodiesterase 9A (Homo sapiens) (UniProt O76083)", "sequence (O76083 whole entry)": "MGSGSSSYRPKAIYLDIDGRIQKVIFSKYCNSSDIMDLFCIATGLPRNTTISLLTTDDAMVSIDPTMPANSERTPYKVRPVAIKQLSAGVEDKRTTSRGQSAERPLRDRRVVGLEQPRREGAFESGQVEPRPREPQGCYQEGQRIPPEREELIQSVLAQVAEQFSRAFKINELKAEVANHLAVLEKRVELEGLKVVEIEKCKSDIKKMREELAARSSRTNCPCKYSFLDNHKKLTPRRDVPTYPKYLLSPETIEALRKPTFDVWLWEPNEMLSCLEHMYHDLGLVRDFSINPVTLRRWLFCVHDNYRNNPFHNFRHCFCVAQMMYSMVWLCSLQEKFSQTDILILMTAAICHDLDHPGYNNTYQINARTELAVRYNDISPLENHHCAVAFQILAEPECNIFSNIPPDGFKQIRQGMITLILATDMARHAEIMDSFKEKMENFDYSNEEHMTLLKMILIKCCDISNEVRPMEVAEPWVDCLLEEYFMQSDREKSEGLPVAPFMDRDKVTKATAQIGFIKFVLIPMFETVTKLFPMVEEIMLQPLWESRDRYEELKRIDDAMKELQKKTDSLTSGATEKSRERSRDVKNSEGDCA", "assay": "Inhibition of PDE9A (unknown origin) using FAM-cyclic-3',5'-AMP as substrate at 10 uM incubated for 1 hrs by fluorescence polarization based IMAP assay relative to control"}, "[9]": {"assay": "Selectivity ratio for inhibition of PDE3B (unknown origin) using FAM-cyclic-3',5'-AMP as substrate to inhibition of PDE4D7 (unknown origin) using FAM-cyclic-3',5'-AMP as substrate"}, "[10]": {"assay": "Selectivity ratio for inhibition of PDE7A (unknown origin) using FAM-cyclic-3',5'-AMP as substrate to inhibition of PDE4B1 (unknown origin) using FAM-cyclic-3',5'-AMP as substrate"}, "[11]": {"assay": "Drug concentration in Sprague-Dawley rat liver at 10 mg/kg, po administered as single dose for 2 hrs by LC-MS analysis", "format": "ADME, organism-based", "conditions": "read-out: Ct"}, "[12]": {"assay": "Drug concentration in Sprague-Dawley rat brain at 10 mg/kg, po administered as single dose for 2 hrs by LC-MS analysis", "format": "ADME, organism-based", "conditions": "read-out: Ct"}, "[13]": {"assay": "Half-life in Sprague-Dawley rat at 2 mg/kg, iv measured after 24 hrs by LC-MS analysis", "format": "ADME, organism-based", "conditions": "in vivo"}, "[14]": {"assay": "AUC (0 to t) in Sprague-Dawley rat at 2 mg/kg, iv measured after 24 hrs by LC-MS analysis", "format": "ADME, organism-based", "conditions": "in vivo"}, "[15]": {"assay": "Tmax in Sprague-Dawley rat at 10 mg/kg, po measured after 24 hrs by LC-MS analysis", "format": "ADME, organism-based", "conditions": "in vivo"}, "[16]": {"assay": "AUC (0 to infinity) in Sprague-Dawley rat at 10 mg/kg, po measured after 24 hrs by LC-MS analysis", "format": "ADME, organism-based", "conditions": "in vivo"}, "[17]": {"assay": "Oral bioavailability in Sprague-Dawley rat at 10 mg/kg measured after 24 hrs by LC-MS analysis", "format": "ADME, organism-based", "conditions": "in vivo"}, "[18]": {"system": "Mus musculus", "assay": "Protection against alcohol use disorder in C57BL/6J mouse model assessed as decrease in alcohol preference at 1 to 2.5 mg/kg, po pre-trained with alcohol and water for 42 days with subsequent compound addition on day 22 and measured after 3 weeks by two-bottle choice test", "format": "functional, organism-based", "conditions": "dose 1-2.5 mg/kg"}, "[19]": {"system": "Mus musculus", "assay": "Protection against alcohol-induced sedation in C57BL/6J mouse model assessed as reduction in sleep time at 1 to 2.5 mg/kg, po preadministered with compound every 24 hrs for 3 times followed by alcohol administration 30 mins post last dose", "format": "functional, organism-based", "conditions": "dose 1-2.5 mg/kg, time 72.5 hrs"}, "[20]": {"system": "Mus musculus", "assay": "(§1) Protection against alcohol-induced motor impairment in C57BL/6J mouse model assessed as short recovery time by measuring latency to falling off at 1 mg/kg, po preadministered with compound every 24 hrs for 3 times followed by alcohol administration 30 mins post last dose and further treated with compound for 3 days followed by alcohol administration 30 mins post last dose and measured at 2 to 20 mins by rotarod test", "format": "functional, organism-based", "conditions": "time 8702-8720 min"}, "[21]": {"system": "Mus musculus", "assay": "as §1, with “increase in distance travelled” for “short recovery time by measuring latency to falling off”, “1 to 2.5” for “1”, “open field” for “rotarod”", "format": "functional, organism-based", "conditions": "dose 1-2.5 mg/kg, time 8702-8720 min"}, "[22]": {"system": "Mus musculus", "assay": "as §1, with “as” for “as short”, “of average speed” for “time by measuring latency to falling off”, “1 to 2.5” for “1”, “open field” for “rotarod”", "format": "functional, organism-based", "conditions": "dose 1-2.5 mg/kg, time 8702-8720 min"}, "[23]": {"system": "Mus musculus", "assay": "as §1, with “decrease in resting” for “short recovery”, “time” for “time by measuring latency to falling off”, “1 to 2.5” for “1”, “open field” for “rotarod”", "format": "functional, organism-based", "conditions": "dose 1-2.5 mg/kg, time 8702-8720 min"}, "[24]": {"system": "Mus musculus", "assay": "(§2) Protection against alcoholic liver disease in NIAAA C57BL/6J mouse model assessed as decrease in liver index at 2.5 mg/kg, po preadministered with 1 to 4 % of alcohol for 10 days with subsequent compound addition from day 6 to 11 and further administered with 31.25 % alcohol on day 11 and measured after 9 hrs", "format": "functional, organism-based", "conditions": "time 5.0 day"}, "[25]": {"system": "Mus musculus", "assay": "as §2, with “serum ALT level” for “liver index”, “at 1 to” for “at”, “hrs by absorbance based plate analyzer” for “hrs”", "format": "functional, organism-based", "conditions": "dose 1-2.5 mg/kg, time 5.0 day"}, "[26]": {"system": "Mus musculus", "assay": "as §2, with “improvement of” for “decrease in”, “injury” for “index”, “at 1 to” for “at”, “hrs by H&E staining based light microscopic analysis” for “hrs”", "format": "functional, organism-based", "conditions": "dose 1-2.5 mg/kg, time 5.0 day"}, "[27]": {"system": "Mus musculus", "assay": "as §2, with “improvement of steatosis” for “decrease in liver index”, “at 1 to” for “at”, “hrs by H&E staining based light microscopic analysis” for “hrs”", "format": "functional, organism-based", "conditions": "dose 1-2.5 mg/kg, time 5.0 day"}, "[28]": {"system": "Mus musculus", "assay": "as §2, with “improvement of” for “decrease in”, “injury” for “index”, “at 1 to” for “at”, “hrs by Oil Red O staining based light microscopic analysis” for “hrs”", "format": "functional, organism-based", "conditions": "dose 1-2.5 mg/kg, time 5.0 day"}, "[29]": {"system": "Mus musculus", "assay": "as §2, with “improvement of steatosis” for “decrease in liver index”, “at 1 to” for “at”, “hrs by Oil Red O staining based light microscopic analysis” for “hrs”", "format": "functional, organism-based", "conditions": "dose 1-2.5 mg/kg, time 5.0 day"}, "[30]": {"system": "Mus musculus", "assay": "as §2, with “reduction” for “decrease”, “serum IL-6 level” for “liver index”, “at 1 to” for “at”, “hrs by ELISA” for “hrs”", "format": "functional, organism-based", "conditions": "dose 1-2.5 mg/kg, time 5.0 day"}, "[31]": {"system": "Mus musculus", "assay": "as §2, with “reduction” for “decrease”, “serum IL1-beta level” for “liver index”, “at 1 to” for “at”, “hrs by ELISA” for “hrs”", "format": "functional, organism-based", "conditions": "dose 1-2.5 mg/kg, time 5.0 day"}}, "note": "pIC50: −log10 of the molar value. The source made the active and inactive calls. The rule behind the calls is not given here."}
{"smiles": "CCOc1nc(Cl)cc2c1cnn2CCCC(=O)O", "values": [{"measurement": "pIC50", "setting": "[1]", "result": 7.51}, {"measurement": "pIC50", "setting": "[2]", "result": 7.43}, {"measurement": "Activity", "setting": "[3]", "result": "Non-Toxic"}, {"measurement": "Selectivity ratio", "setting": "[4]", "result": "> 267"}, {"measurement": "Selectivity ratio", "setting": "[5]", "result": "> 267"}, {"measurement": "inhibition", "setting": "[6]", "result": 10, "unit": "%"}, {"measurement": "inhibition", "setting": "[7]", "result": 11, "unit": "%"}, {"measurement": "inhibition", "setting": "[8]", "result": 9, "unit": "%"}, {"measurement": "Selectivity ratio", "setting": "[9]", "result": "> 267"}, {"measurement": "Selectivity ratio", "setting": "[10]", "result": "> 267"}, {"measurement": "concentration at 2 h", "setting": "[11]", "result": 8120, "unit": "ng/g"}, {"measurement": "concentration at 2 h", "setting": "[12]", "result": 441, "unit": "ng/g"}, {"measurement": "half-life", "setting": "[13]", "result": 3.65, "unit": "h"}, {"measurement": "AUC(0-t) at 24 h", "setting": "[14]", "result": 142, "unit": "µg·h/mL"}, {"measurement": "Tmax", "setting": "[15]", "result": 4, "unit": "h"}, {"measurement": "AUC(0-inf)", "setting": "[16]", "result": 828, "unit": "µg·h/mL"}, {"measurement": "bioavailability", "setting": "[17]", "result": 94.1, "unit": "%"}, {"measurement": "Activity", "setting": "[18]", "result": "Active"}, {"measurement": "Activity", "setting": "[19]", "result": "Active"}, {"measurement": "Activity", "setting": "[20]", "result": "inactive"}, {"measurement": "Activity", "setting": "[21]", "result": "Active"}, {"measurement": "Activity", "setting": "[22]", "result": "Active"}, {"measurement": "Activity", "setting": "[23]", "result": "Active"}, {"measurement": "Activity", "setting": "[24]", "result": "Active"}, {"measurement": "Activity", "setting": "[25]", "result": "Active"}, {"measurement": "Activity", "setting": "[26]", "result": "Active"}, {"measurement": "Activity", "setting": "[27]", "result": "Active"}, {"measurement": "Activity", "setting": "[28]", "result": "Active"}, {"measurement": "Activity", "setting": "[29]", "result": "Active"}, {"measurement": "Activity", "setting": "[30]", "result": "Active"}, {"measurement": "Activity", "setting": "[31]", "result": "Active"}]}
